Patent US12589101B2, “Cyclodextrin protein drug conjugates” (Regeneron Pharmaceuticals, Inc., priority 2017, dated 2026)
Converted amounts (≈) assume the structure as drawn. Where two headings read alike, the source gives them in different places. Numbered stars: 1 amine (or outer) side, 2 acyl side, 3 side chain; on linkers, the order of the positions; unused ones are H or OH. Square brackets hold non-standard residues; d marks the D form. Peptide text beside a SMILES is read from it. * marks the point of attachment. Dolaproine = CO[C@@H]([C@@H]1CCCN1)[C@@H](C)C(=O)O; Dil = CC[C@H](C)[C@H](NC)[C@@H](CC(=O)O)OC; PABC = O=C(OCc1ccc(N[*:1])cc1)[*:2]; DBCO = C1#Cc2ccccc2N(*)Cc2ccccc21; X1 = C[C@@H](N*)[C@@H](O)c1ccccc1; Cit = NC(=O)NCCC[C@H](N)C(=O)O; PEG4 = NCCOCCOCCOCCOCCC(=O)O; Suc = O=C(CCC(=O)[*:2])[*:1]; NMeV = CN[C@H](C(=O)O)C(C)C

Assays:
Cathepsin B = Cathepsin B (Homo sapiens, UniProt P07858); assay: Cathepsin B cleavage rate of linker-payloads (Example 66); type: biochemical; settings: for CapB (%): pH 5.0, 37° C.
Method: Step 1: Preparation of Cathepsin B buffer: 0.1 M NaOAc/0.01M DTT (pH5.0) Dissolve 8.3 g/L NaOAc, 1.54 g/L DTT in deionized water. Adjust pH to 5.0 with HCl/sodium hydroxide.
Step 2: Test Cleavage Rate
• 1. Prepare 25 μM of testing sample: To a 2-mL-tube was added 0.5 mg of testing sample, followed by the addition of 0.2 mL of DMSO. The solution was added dropwise into 0.8 mL of 0.1 M NaOAc/0.01 M DTT buffer. The obtained mixtures were sonicated for 5 minutes to obtain clear and colorless solutions. The pH value of the solution was around 5 according to pH test strip. • 2. Preheat assay buffer: 0.1 M NaOAc/0.01 M DTT (pH 5.0) • 3. Spiking solutions for test compounds: 25 μM Spiking solutions for test compounds: Add 2 μL of 5 mM stock solution into 398 μL of 0.1 M NaOAc/0.01 M DTT buffer (pH 5.0). • 4. Prepare 0.47 μg/μL Cathepsin B in 50 mM NaOAc/1 mM EDTA (pH 5.0). Put on ice. • 5. Without CA074 samples: Add 4 μL of 0.47 μg/μL Cathepsin B into 196 μL of 25 μM Spiking solutions (from step 2), incubate the tubes at 37° C. • 6. With CA074 samples: Add 4 μL of 0.47 μg/μL Cathepsin B with 4 μL of 10 mM Inhibitor (CA074) into 196 μL of 25 μM Spiking solutions (from step 2), incubate the tubes. • 7. After quenching, shake the plate and centrifuge them at 14000 rpm. • 8. Transfer 50 μL of the supernatant from each well into a 96-well sample plate containing 50 μL of ultra pure water (Millipore, ZMQS50F01) for LC/MS analysis. Step 3: Test reference compounds: • 9. Preheat assay buffer: 100 mM Na/K phosphate, pH 6.0, with 1.33 mM EDTA and 2 mM DTT. • 10. Prepare 0.024 μg/μL Cathepsin B: Add 1 μL of 0.47 μg/μL Cathepsin B stock into 19 μL of assay buffer (from step 11). • 11. Add 2 μL of 0.024 μg/μL Cathepsin B (from step 12) to a opaque 96-well plate. • 12. Add 96 μL of assay buffer to each sample. • 13. Add 2 μL of the 10 mM substrate Z-RR-MNA (200 μM final concentration). • 14. For negative control (With inhibitor), add 2 μL of 10 mM Inhibitor (CA074): Immediately read the samples in a kinetic mode at excitation of 340 nm/emission of 425 nm (Read the plate every 30 Second for 3 min). Step 4: Stability of Cathepsin B in incubation samples: • 15. Take 5 μL of incubation samples into 93 μL of assay buffer (from step 11), and then add 2 μL of 10 mM substrate (Z-RR-MNA). • 16. Incubate the samples at 37° C. for 2 min. • 17. Read the samples at excitation of 340 nm/emission of 425 nm.

[1] = Solubility of linker-payloads (LC-MS standard curve, saturated solution); type: physicochemical; settings: for solubility at 10 min: thermodynamic from solid
Method: The following test assays the solubility of the linker-payloads with a cyclodextrin moiety and the linker-payloads without a cyclodextrin moiety.
The test compounds were dissolved in DMSO to build a standard curve using LC-MS method A or B. The test sample was dissolved in water and sonicated for 10 minutes, and then centrifuged. The upper clear solution was analyzed using the same method A or B and the solubility was calculated based on its peak area.
Detailed test procedures were as follows: • 1. […] 0.05 mg of compound was suspended in water (1 mL) and sonicated for 10 minutes. After centrifugation, the clear solution above was collected to provide the saturated sample solution. • 3. All the standard solutions A, B, C, D, E and sample solution were analyzed by LCMS (using the same method and same injection volume) to obtain the peak areas. • 4. Calculate the standard curve according to the data of A-D (X=concentration, Y=peak areas). • 5. Calculate to obtain the concentration of saturated sample solution according to the functions obtained above.

[2] = water, aqueous, read-out: Aq. Solubility
[3] = water, water, read-out: Solubility

SMILES	CapB (%) (Cathepsin B; Cathepsin B cleavage rate)	solubility at 10 min [1, 2]	solubility at 10 min [1, 3]	solubility at 10 min ([1]; water, Solubility)	other results
CCC[C@@H]1O[C@@H]2C[C@H]3[C@@H]4CCC5=CC(=O)C=C[C@]5(C)[C@H]4[C@@H](O)C[C@]3(C)[C@]2(C(=O)COc2ccc(NC(=O)[C@H](C)NC(=O)[C@@H](NC(=O)CCOCCOCCOCCOCCNC(=O)CCC(=O)N3Cc4ccccc4C#Cc4ccccc43)C(C)C)cc2)O1 [Ex45, 1-(4-{2-azatricyclo[10.4.0.0^4,9]hexadeca-1(12),4(9),5,7,13,15-hexaen-10-yn-2-yl}-4-oxobutanamido)-N-[(1S)-1-{[(1S)-1-[(4-{2-[(1S,2S,4R,6R,8S,9S,11 S,12S,13R)-11-hydroxy-9,13-dimethyl-16-oxo-6-propyl-5,7-dioxapentacyclo[10.8.0.0^2,9.0^4,8.0^13,18]icosa-14,17-dien-8-yl]-2-oxoethoxy}phenyl)carbamoyl]ethyl]carbamoyl}-2-methylpropyl]-3,6,9,12-tetraoxapentadecan-15-amide]	% (% ≤50 CapB (%))	< 100 µg/mL	< 100 µg/mL		
CC(C)[C@H](NC(=O)[C@@H](CCCCNC(=O)CCOCCOCCOCCOCCNC(=O)COC1CCCCCc2nnn(CC3OC4OC5C(CO)OC(OC6C(CO)OC(OC7C(CO)OC(OC8C(CO)OC(OC9C(CO)OC(OC3C(O)C4O)C(O)C9O)C(O)C8O)C(O)C7O)C(O)C6O)C(O)C5O)c21)NC(=O)CCOCCOCCOCCOCCNC(=O)CCC(=O)N1Cc2ccccc2C#Cc2ccccc21)C(=O)N[C@@H](C)C(=O)Nc1ccc2c(c1)[C@@]1(C)CCC[C@](C)(C(=O)NC(=O)[C@@]3(C)CCC[C@]4(C)c5cc(O)ccc5CC[C@@H]34)[C@@H]1CC2 (stereo partly drawn) [Ex53, DIBAC-suc-PEG4-D-Lys(PEG4-COT-CD)-Val-Ala-1d]	% (50< % ≤60 CapB (%))			180 µg/mL (≈ 65 µM)	solubility at 10 min ([1]; water, Aq. Solubility (mg/mL)): 330 µg/mL (≈ 119 µM)
CCCC1O[C@@H]2C[C@H]3[C@@H]4C[C@H](F)C5=CC(=O)C=C[C@]5(C)[C@@]4(F)[C@@H](O)C[C@]3(C)[C@]2(C(=O)COc2ccc(NC(=O)OCc3ccc(NC(=O)[C@H](CCCNC(N)=O)NC(=O)[C@@H](NC(=O)CCOCCOCCOCCOCCNC(=O)CCC(=O)N4Cc5ccccc5C#Cc5ccccc54)C(C)C)cc3)cc2)O1 (stereo partly drawn) [Ex61, DIBAC-suc-PEG4-vcPAB-1i]	% (% ≤50 CapB (%))			< 10 µg/mL	capB (Cathepsin B; Cathepsin B cleavage rate, Table 8A): <5%; Solubility ([1]; 10 min): 0.01 mg/ mL mg/mL; solubility at 10 min ([1]; water, Aq. Solubility (mg/mL)): 10 µg/mL (≈ 6.68 µM)
CC[C@H](C)[C@@H]([C@@H](CC(=O)N1CCC[C@H]1[C@H](OC)[C@@H](C)C(=O)N[C@H](C)[C@@H](O)c1ccccc1)OC)N(C)C(=O)[C@@H](NC(=O)[C@H](C(C)C)N(C)C(=O)OCc1ccc(NC(=O)[C@H](CCCNC(N)=O)NC(=O)[C@@H](NC(=O)[C@@H](CCCCNC(=O)COC2CCCCCc3c2nnn3CC2OC3OC4C(CO)OC(OC5C(CO)OC(OC6C(CO)OC(OC7C(CO)OC(OC8C(CO)OC(OC2C(O)C3O)C(O)C8O)C(O)C7O)C(O)C6O)C(O)C5O)C(O)C4O)NC(=O)CCOCCOCCOCCOCCNC(=O)OC[C@@H]2[C@@H]3CCC#CCC[C@@H]32)C(C)C)cc1)C(C)C (stereo partly drawn) [Ex42]	% % (60< % % ≤70 CapB (%))	> 1000 µg/mL	1000 µg/mL (≈ 352 µM)		
CC(C)[C@H](NC(=O)[C@@H](CCCCNC(=O)CCOCCOCCOCCOCCNC(=O)COC1CCCCCc2nnn(CC3OC4OC5C(CO)OC(OC6C(CO)OC(OC7C(CO)OC(OC8C(CO)OC(OC9C(CO)OC(OC3C(O)C4O)C(O)C9O)C(O)C8O)C(O)C7O)C(O)C6O)C(O)C5O)c21)NC(=O)CCOCCOCCOCCOCCNC(=O)CCC(=O)N1Cc2ccccc2C#Cc2ccccc21)C(=O)N[C@@H](CCCNC(N)=O)C(=O)Nc1ccc(COC(=O)NCCOc2ccc3c(c2)[C@@]2(C)CCC[C@](C)(C(=O)NC(=O)[C@@]4(C)CCC[C@]5(C)c6cc(O)ccc6CC[C@@H]45)[C@@H]2CC3)cc1 (stereo partly drawn) [Ex50]	% (% ≤50 CapB (%))			330 µg/mL (≈ 108 µM)	
CCC[C@@H]1O[C@@H]2C[C@H]3[C@@H]4CCC5=CC(=O)C=C[C@]5(C)[C@H]4[C@@H](O)C[C@]3(C)[C@]2(C(=O)COc2ccc(NC(=O)[C@H](C)NC(=O)[C@@H](NC(=O)[C@@H](CCCCNC(=O)COC3CCCCCc4c3nnn4CC3OC4OC5C(CO)OC(OC6C(CO)OC(OC7C(CO)OC(OC8C(CO)OC(OC9C(CO)OC(OC3C(O)C4O)C(O)C9O)C(O)C8O)C(O)C7O)C(O)C6O)C(O)C5O)NC(=O)CCOCCOCCOCCOCCNC(=O)CCC(=O)N3Cc4ccccc4C#Cc4ccccc43)C(C)C)cc2)O1 (stereo partly drawn) [Ex47]	% (% ≤50 CapB (%))	< 100 µg/mL			Cathepsin B cleavage rate (Cathepsin B): 14%; aqueous solubility (in words) ([1]; water): below detectable levels
CC[C@H](C)[C@@H]([C@@H](CC(=O)N1CCC[C@H]1[C@H](OC)[C@@H](C)C(=O)N[C@H](C)[C@@H](O)c1ccccc1)OC)N(C)C(=O)[C@@H](NC(=O)[C@H](C(C)C)N(C)C(=O)OCc1ccc(NC(=O)[C@H](CCCNC(N)=O)NC(=O)[C@@H](NC(=O)[C@@H](CCCCNC(=O)COC2CCCCCc3c2nnn3CC2OC3OC4C(CO)OC(OC5C(CO)OC(OC6C(CO)OC(OC7C(CO)OC(OC8C(CO)OC(OC2C(O)C3O)C(O)C8O)C(O)C7O)C(O)C6O)C(O)C5O)C(O)C4O)NC(=O)CCOCCOCCOCCOCCNC(=O)CCC(=O)N2Cc3ccccc3C#Cc3ccccc32)C(C)C)cc1)C(C)C (stereo partly drawn) [Ex41]	% % (70< % % ≤80 CapB (%))	140 µg/mL (≈ 47.5 µM)	250 µg/mL (≈ 84.8 µM)		
CC[C@H](C)[C@@H]([C@@H](CC(=O)N1CCC[C@H]1[C@H](OC)[C@@H](C)C(=O)N[C@H](C)[C@@H](O)c1ccccc1)OC)N(C)C(=O)[C@@H](NC(=O)[C@H](C(C)C)N(C)C(=O)OCc1ccc(NC(=O)[C@H](CCCNC(N)=O)NC(=O)[C@@H](NC(=O)CCOCCOCCOCCOCCNC(=O)CCC(=O)N2Cc3ccccc3C#Cc3ccccc32)C(C)C)cc1)C(C)C [Ex36] ({DBCO-Suc-PEG4}-V[Cit][PABC][NMeV]V[Dil][Dolaproine]-X1)	% % (60< % % ≤70 CapB (%))	< 100 µg/mL	< 100 µg/mL		
CCCC1O[C@@H]2C[C@H]3[C@@H]4C[C@H](F)C5=CC(=O)C=C[C@]5(C)[C@@]4(F)[C@@H](O)C[C@]3(C)[C@]2(C(=O)CNC(=O)OCc2ccc(NC(=O)[C@H](CCCNC(N)=O)NC(=O)[C@@H](NC(=O)[C@@H](CCCCNC(=O)COC3CCCCCc4c3nnn4CC3OC4OC5C(CO)OC(OC6C(CO)OC(OC7C(CO)OC(OC8C(CO)OC(OC9C(CO)OC(OC3C(O)C4O)C(O)C9O)C(O)C8O)C(O)C7O)C(O)C6O)C(O)C5O)NC(=O)CCOCCOCCOCCOCCNC(=O)OC[C@@H]3[C@@H]4CCC#CCC[C@@H]43)C(C)C)cc2)O1 (stereo partly drawn) [Ex60, BCN-PEG4-dLys(COT-CD)-vcPAB-1h]	% (% ≤50 CapB (%))				
